Literature values in patent US20140066504A1, “ANALOGS AND PRODRUGS OF BUMETANIDE; COMPOSITIONS AND METHODS OF USE” (priority 2012, published 2014).

What was measured:
NKCC1 = biological target: T1, NKCC1 (Homo sapiens, UniProt P55011); conditions: for affinity for NKCC1 over KCC2: selectivity
T1 sequence (P55011 1-1212): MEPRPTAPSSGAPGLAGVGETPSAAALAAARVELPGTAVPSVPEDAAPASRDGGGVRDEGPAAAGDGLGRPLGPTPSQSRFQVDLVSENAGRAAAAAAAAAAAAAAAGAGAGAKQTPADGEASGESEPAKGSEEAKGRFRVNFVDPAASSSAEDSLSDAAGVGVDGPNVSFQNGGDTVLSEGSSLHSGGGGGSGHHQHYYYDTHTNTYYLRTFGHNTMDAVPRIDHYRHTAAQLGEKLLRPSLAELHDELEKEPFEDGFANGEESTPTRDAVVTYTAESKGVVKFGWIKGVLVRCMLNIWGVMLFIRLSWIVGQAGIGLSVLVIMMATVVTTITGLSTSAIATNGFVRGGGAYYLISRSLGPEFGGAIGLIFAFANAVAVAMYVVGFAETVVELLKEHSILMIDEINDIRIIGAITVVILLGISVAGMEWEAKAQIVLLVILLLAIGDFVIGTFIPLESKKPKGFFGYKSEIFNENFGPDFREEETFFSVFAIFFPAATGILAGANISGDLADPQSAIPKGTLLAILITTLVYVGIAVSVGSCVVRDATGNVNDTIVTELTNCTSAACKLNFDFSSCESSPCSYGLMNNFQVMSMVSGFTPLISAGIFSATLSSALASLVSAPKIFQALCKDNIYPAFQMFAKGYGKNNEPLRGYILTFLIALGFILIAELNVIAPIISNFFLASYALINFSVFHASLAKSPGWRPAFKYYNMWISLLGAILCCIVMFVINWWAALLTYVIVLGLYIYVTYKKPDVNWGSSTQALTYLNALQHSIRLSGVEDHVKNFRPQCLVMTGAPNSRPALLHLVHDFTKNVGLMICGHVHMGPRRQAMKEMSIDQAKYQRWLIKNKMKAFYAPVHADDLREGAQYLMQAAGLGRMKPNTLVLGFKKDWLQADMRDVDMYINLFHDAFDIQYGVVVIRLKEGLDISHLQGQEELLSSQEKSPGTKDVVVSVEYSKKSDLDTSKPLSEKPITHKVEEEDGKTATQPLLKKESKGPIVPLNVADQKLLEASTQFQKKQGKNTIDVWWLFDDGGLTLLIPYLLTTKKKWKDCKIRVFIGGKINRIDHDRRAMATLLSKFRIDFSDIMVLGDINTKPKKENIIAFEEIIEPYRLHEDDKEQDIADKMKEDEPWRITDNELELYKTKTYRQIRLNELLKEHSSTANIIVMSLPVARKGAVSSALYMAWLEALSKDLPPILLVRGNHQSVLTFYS

[1] = system: audiogenic seizure-prone rats; conditions: audiogenic seizure-prone animals
primate cortex = conditions: relative to furosemide
rat hippocampal slices = conditions: afterdischarge, high-K+, zero-magnesium, 4-AP, bicuculline, zero-calcium models
neocortex = conditions: intravenously administered, human patients
[2] = system: adults with refractory epilepsy

| Structure (SMILES) | effect on kainic acid status (rats) | NKCC1 antagonist potency and specificity relative to furosemide (NKCC1) | affinity for NKCC1 over KCC2 (NKCC1) | effect on sound-triggered seizures [1] | effect on conditioned anxiety (rat models of anxiety) | blocking epileptiform activity (focal bicuculline or 4-AP) and stimulation-evoked afterdischarges (primate cortex) | effect on activity-driven glial cell swelling (glial cell) | effect on epileptiform activity (rat hippocampal slices) | effect on interictal spiking and stimulation-evoked afterdischarges (neocortex) | effect on seizure frequency [2] |
| --- | --- | --- | --- | --- | --- | --- | --- | --- | --- | --- |
| CCCCNc1cc(C(=O)O)cc(S(N)(=O)=O)c1Oc1ccccc1 [bumetanide] | more potent than furosemide | more potent and specific antagonist than furosemide | significantly greater affinity for NKCC1 over KCC2 | more potent than furosemide | significantly reduce conditioned anxiety | more potent than furosemide |  |  |  |  |
| NS(=O)(=O)c1cc(C(=O)O)c(NCc2ccco2)cc1Cl [furosemide] |  |  | significantly greater affinity for NKCC1 over KCC2 | prevented sound-triggered seizures | significantly reduce conditioned anxiety |  | block activity-driven glial cell swelling | block epileptiform activity | blocked spontaneously occurring interictal spiking and stimulation-evoked afterdischarges | significantly reduced seizure frequency |
